Assay results reported in patent publication US10392383B2, “3-(1H-benzo[d]imidazol-2-yl)-1H-pyrazolo[4,3-b]pyridines and therapeutic uses thereof” (Samumed, LLC, priority 2015, dated 2019).

Legend:
[1] = test system: IL-6 (THP-1 cells); assay: IL-6 inhibition in LPS-stimulated THP-1 monocytes (HTRF); format: cell-based; settings: Homo sapiens, IL-6 HTRF; for EC50: 500 ng/mL LPS, Table 6; for inhibition at 10 µM: LPS, Table 6, read-out: percent inhibition at 10 μM (given in parentheses for EC50 >10 μM)
Description: Human Monocyte Cell Culture: Human monocyte cell line (THP-1 cells; Catalog # TIB-202, ATCC, Manassas, Va.) were cultured in Roswell Park Memorial Institute (RPMI) 1640 Medium (Catalog #21870-100, Buffalo, N.Y.) with 1% L-glutamine, 1% HEPES, 1% Sodium Pyruvate, 2% Sodium Bicarbonate supplemented with 100 units/mL penicillin, 50 μg/mL streptomycin, 2-mercaptoethanol (0.05 mM) [basal medium] and 10% fetal bovine serum (Catalog #16140089, Life Technologies, Carlsbad, Calif.) at 37° C. and 5% CO2.
Compound Screening: THP-1 cells were cultured in basal media with 1% FBS for 24 hours before the start of the assay. Each compound was dissolved in DMSO as a 10 mM stock and used to prepare compound source plates. Serial dilution (1:3, 10-point dose-response curves starting from 10 μM) and compound transfer was performed using the ECHO 550 (Labcyte, Sunnyvale, Calif.) into 384-well white low volume assay plates (Greiner Bio-One) with appropriate DMSO backfill for a final DMSO concentration of 0.1%. THP-1 cells were plated at 5000 cells/well in the 384-well plates and incubated at 37° C. for 2 h. 500 ng/mL of LPS was added after 2 hours and cells were incubated for another 22 hours at 37° C. Plates were spun in a centrifuge for 1 minute at […] and a mixture of anti-IL6 XL665, and anti-IL6 Cryptate diluted in reconstitution buffer (Cisbio Inc.) was added to each well. Following incubation for 3 hrs at room temperature, Homogeneous Time-Resolved Fluorescence (HTRF) was measured using the Envision (Perkin Elmer) at 665 nm and […]. The ratio of fluorescence at 665 nm to 620 nm was used as a readout for IL6 quantification. All samples were processed in duplicate. Readings were normalized to DMSO treated cells and normalized activities were utilized for EC50 calculations using the dose-response log (inhibitor) vs. response-variable slope (four parameters) nonlinear regression feature available in GraphPad Prism 5.0 (or Dotmatics). For EC50 of >10 μM, the percent inhibition at 10 μM is provided.

[2] = test system: SW480 colon cancer cells; assay: Cell viability assay (CellTiter-Blue) in SW480 cells; format: cell-based; settings: Homo sapiens, 96 h, four days; for EC50: CellTiter-Blue, 10 μM to 0.0045 μM; for inhibition at 10 µM: read-out: percent inhibition at 10 μM (given for EC50 of >10 μM)
Description: Representative compounds were screened using the following assay procedure to assess the effect on cell viability as described below.
Each compound was dissolved in DMSO as a 10 mM stock and used to prepare compound source plates. Serial dilution (1:3, 8-point dose-response curves from 10 μM to 0.0045 μM) and compound transfer was performed using the ECHO 550 (Labcyte, Sunnyvale, Calif.) into 96-well clear bottom, black-walled plates (Corning-Costar).
Approximately 2×10^3 SW480 colon cancer cells were seeded into each well and allowed to incubate in the presence or absence of compound for four days at 37° C./5% CO2. Eight replicates of DMSO-treated cells served as controls and cells treated with compound were performed in duplicate.
After incubation, 20 μL of CellTiter-Blue (Promega) was added to each well allowed to incubate for approximately 3 hours. This reagent was a buffered solution which contains resazurin, metabolically active cells were able to reduce rezarurin (blue) into resorufin (pink) which was highly fluorescent. This measured fluorescence was used as a readout for cell viability.
After incubation, the plates were read at Ex 560 nm Em 590 nm (Cytation 3, BioTek). Dose-response curves were generated and EC50 concentration values were calculated using non-linear regression curve fit in the GraphPad Prism (San Diego, Calif.) or Dotmatics' Studies Software (Bishops Stortford, UK). For EC50 of >10 μM, the percent inhibition at 10 μM is provided.

| SMILES | EC50 [1] [µM] | EC50 [2] [µM] | inhibition at 10 µM [1] [%] | inhibition at 10 µM [2] [%] |
| --- | --- | --- | --- | --- |
| CC(C)C(=O)Nc1cncc(-c2ccc3[nH]nc(-c4nc5c(-c6ccccc6F)cccc5[nH]4)c3n2)c1 [Compound 65, N-(5-(3-(4-(2-fluorophenyl)-1H-benzo[d]imidazol-2-yl)-1H-pyrazolo[4,3-b]pyridin-5-yl)pyridin-3-yl)isobutyramide] | > 10 | > 10 | 30.7 | 16.1 |
| O=C(Nc1cncc(-c2ccc3[nH]nc(-c4nc5c(-c6ccccc6F)cccc5[nH]4)c3n2)c1)C1CCCC1 [Compound 78, N-(5-(3-(4-(2-Fluorophenyl)-1H-benzo[d]imidazol-2-yl)-1H-pyrazolo[4,3-b]pyridin-5-yl)pyridin-3-yl)cyclopentanecarboxamide] | > 10 | > 10 | 19.1 | 20 |
| Fc1ccccc1-c1cccc2[nH]c(-c3n[nH]c4ccc(-c5cncc(CNCC6CCCC6)c5)nc34)nc12 [Compound 81, 1-Cyclopentyl-N-((5-(3-(4-(2-fluorophenyl)-1H-benzo[d]imidazol-2-yl)-1H-pyrazolo[4,3-b]pyridin-5-yl)pyridin-3-yl)methyl)methanamine] | 3.6 | 1.14 |  |  |
| c1ccc(CNCc2cncc(-c3ccc4[nH]nc(-c5nc6c(-c7cccnc7)cccc6[nH]5)c4n3)c2)cc1 [Compound 108, N-Benzyl-1-(5-(3-(4-(pyridin-3-yl)-1H-benzo[d]imidazol-2-yl)-1H-pyrazolo [4,3-b]pyridin-5-yl)pyridin-3-yl)methanamine] | 2.12 | 3.18 |  |  |
| c1cc(-c2ccncc2)c2nc(-c3n[nH]c4ccc(-c5ccncc5)nc34)[nH]c2c1 [Compound 130, 5-(Pyridin-4-yl)-3-(4-(pyridin-4-yl)-1H-benzo[d]imidazol-2-yl)-1H-pyrazolo [4,3-b]pyridine] | > 10 | > 10 | 48.7 | 23.4 |
| O=C(Nc1cncc(-c2ccc3[nH]nc(-c4nc5c(-c6ccncc6)cccc5[nH]4)c3n2)c1)C1CCCCC1 [Compound 135, N-(5-(3-(4-(pyridin-4-yl)-1H-benzo[d]imidazol-2-yl)-1H-pyrazolo[4,3-b]pyridin-5-yl)pyridin-3-yl)cyclohexanecarboxamide] | > 10 | > 10 | 32.4 | 1 |
| CCCCC(=O)Nc1cncc(-c2ccc3[nH]nc(-c4nc5c(-c6ccccn6)cccc5[nH]4)c3n2)c1 [Compound 159, N-(5-(3-(4-(Pyridin-2-yl)-1H-benzo[d]imidazol-2-yl)-1H-pyrazolo[4,3-b]pyridin-5-yl)pyridin-3-yl)pentanamide] | > 10 | > 10 | 26.6 | 11 |
| CN(C)c1cncc(-c2ccc3[nH]nc(-c4nc5c(N6CCCCC6)cccc5[nH]4)c3n2)c1 [Compound 175, N,N-dimethyl-5-(3-(4-(piperidin-1-yl)-1H-benzo[d]imidazol-2-yl)-1H-pyrazolo[4,3-b]pyridin-5-yl)pyridin-3-amine] | 2.97 | 6.08 |  |  |
| CN1CCN(c2cccc3[nH]c(-c4n[nH]c5ccc(-c6cncnc6)nc45)nc23)CC1 [Compound 251, 3-(4-(4-Methylpiperazin-1-yl)-1H-benzo[d]imidazol-2-yl)-5-(pyrimidin-5-yl)-1H-pyrazolo[4,3-b]pyridine] | 2.23 | > 10 |  | 0 |
| CS(=O)(=O)NCc1cc(F)cc(-c2cccc3[nH]c(-c4n[nH]c5ccc(-c6cncc(NC(=O)c7ccccc7)c6)nc45)nc23)c1 [Compound 487, N-(5-(3-(4-(3-Fluoro-5-(methylsulfonamidomethyl)phenyl)-1H-benzo[d]imidazol-2-yl)-1H-pyrazolo[4,3-b]pyridin-5-yl)pyridin-3-yl)benzamide] | > 10 | > 10 | 0 | 9.7 |
| c1cc(-c2ccncc2)c2nc(-c3n[nH]c4ccc(-c5cnccn5)nc34)[nH]c2c1 [Compound 584, 5-(Pyrazin-2-yl)-3-(4-(pyridin-4-yl)-1H-benzo[d]imidazol-2-yl)-1H-pyrazolo[4,3-b]pyridine] | > 10 | > 10 | 14.7 | 9.6 |

Now from value to compound, other results behind:

| EC50 [1] [µM] | EC50 [2] [µM] | SMILES | inhibition at 10 µM [1] [%] | inhibition at 10 µM [2] [%] |
| --- | --- | --- | --- | --- |
| 5.18 | 5.82 | Fc1cccc(-c2cccc3[nH]c(-c4n[nH]c5ccc(-c6cncc(CN7CCC(F)(F)C7)c6)nc45)nc23)c1 [Compound 26, 5-(5-((3,3-Difluoropyrrolidin-1-yl)methyl)pyridin-3-yl)-3-(4-(3-fluorophenyl)-1H-benzo[d]imidazol-2-yl)-1H-pyrazolo[4,3-b]pyridine] |  |  |
| > 10 | > 10 | CC(C)(C)CC(=O)Nc1cncc(-c2ccc3[nH]nc(-c4nc5c(-c6ccccc6F)cccc5[nH]4)c3n2)c1 [Compound 72, N-(5-(3-(4-(2-Fluorophenyl)-1H-benzo[d]imidazol-2-yl)-1H-pyrazolo[4,3-b]pyridin-5-yl)pyridin-3-yl)-3,3-dimethylbutanamide] | 14.1 | 2 |
| > 10 | > 10 | O=C(Nc1cncc(-c2ccc3[nH]nc(-c4nc5c(-c6ccccn6)cccc5[nH]4)c3n2)c1)c1ccccc1 [Compound 151, N-(5-(3-(4-(Pyridin-2-yl)-1H-benzo[d]imidazol-2-yl)-1H-pyrazolo[4,3-b]pyridin-5-yl)pyridin-3-yl)benzamide] | 22 | 20.8 |
| > 10 | 3.46 | O=C(Nc1cncc(-c2ccc3[nH]nc(-c4nc5c(-c6ccsc6)cccc5[nH]4)c3n2)c1)c1ccccc1 [Compound 291, N-(5-(3-(4-(Thiophen-3-yl)-1H-benzo[d]imidazol-2-yl)-1H-pyrazolo[4,3-b]pyridin-5-yl)pyridin-3-yl)benzamide] | 28.9 |  |
| 0.0983 | > 10 | Cc1ccc(-c2cccc3[nH]c(-c4n[nH]c5ccc(-c6cncc(NC(=O)C7CCCC7)c6)nc45)nc23)s1 [Compound 414, N-(5-(3-(4-(5-Methylthiophen-2-yl)-1H-benzo[d]imidazol-2-yl)-1H-pyrazolo [4,3-b]pyridin-5-yl)pyridin-3-yl)cyclopentanecarboxamide] |  | 0 |
| > 10 | > 10 | c1cc(-c2ccncc2)c2nc(-c3n[nH]c4ccc(-c5cncc(OC6CCNCC6)c5)nc34)[nH]c2c1 [Compound 576, 5-(5-(Piperidin-4-yloxy)pyridin-3-yl)-3-(4-(pyridin-4-yl)-1H-benzo[d]imidazol-2-yl)-1H-pyrazolo[4,3-b]pyridine] | 37 | 9 |
| > 10 | > 10 | c1ccc(COc2cncc(-c3ccc4[nH]nc(-c5nc6c(-c7ccncc7)cccc6[nH]5)c4n3)c2)cc1 [Compound 582, 5-(5-(Benzyloxy)pyridin-3-yl)-3-(4-(pyridin-4-yl)-1H-benzo[d]imidazol-2-yl)-1H-pyrazolo[4,3-b]pyridine] | 2.8 | 28.5 |
| 0.929 | > 10 | O=C(CC1CCNCC1)Nc1cncc(-c2ccc3[nH]nc(-c4nc5c(-c6ccccn6)cccc5[nH]4)c3n2)c1 [Compound 593, 2-(Piperidin-4-yl)-N-(5-(3-(4-(pyridin-2-yl)-1H-benzo[d]imidazol-2-yl)-1H-pyrazolo[4,3-b]pyridin-5-yl)pyridin-3-yl)acetamide] |  | 13.6 |
